In patent publication US12281149B2, “Modulators of G-protein coupled receptors” (priority 2021, dated 2025):
*1 amine or outer side, *2 acyl side, *3 side chain or, on linkers, in order; H or OH if unused. Where a SMILES comes first, the peptide text is derived from it. Side-chain parts run from the residue outwards. [ ]: non-standard residue; d: D form. The star is where a group is joined. Isobutyryl(2-(3-CN-5-F-Ph)) = CC(C)(C(=O)*)c1cc(F)cc(C#N)c1; C20 diacid = O=C(O)CCCCCCCCCCCCCCCCCCC(=O)*; C18 diacid = O=C(O)CCCCCCCCCCCCCCCCC(=O)*; γGlu = O=C(O)[C@H](CCC(=O)[*:2])N[*:1]; Trx = NC[C@H]1CC[C@H](C(=O)O)CC1; AEEA = NCCOCCOCC(=O)O; Aib = CC(C)(N)C(=O)O; βAla = NCCC(=O)O

Assays:
Type in all cases: cell-based
[1] = biological target: T1, GLP-1 receptor (Homo sapiens, UniProt P43220); test: HitHunter cAMP assay, GLP-1 receptor; settings: for EC50: CHO cells stably expressing human GLP-1 receptor, cAMP accumulation, 30 min, read-out: EC50 GLP-1R; for Emax: CHO cells, cAMP, normalized to maximum signal from GLP-1 (high) and DMSO (low), read-out: Emax GLP-1R
[2] = biological target: T2, GIP receptor (Homo sapiens, UniProt P48546); test: HitHunter cAMP assay, GIP receptor; settings: for EC50: CHO cells stably expressing GIP receptor, cAMP accumulation, 30 min, read-out: EC50 GIP-1R; for Emax: CHO cells, cAMP, normalized to maximum signal from GIP (high) and DMSO (low), read-out: Emax GIP-1R
T2 sequence (P48546 22-466): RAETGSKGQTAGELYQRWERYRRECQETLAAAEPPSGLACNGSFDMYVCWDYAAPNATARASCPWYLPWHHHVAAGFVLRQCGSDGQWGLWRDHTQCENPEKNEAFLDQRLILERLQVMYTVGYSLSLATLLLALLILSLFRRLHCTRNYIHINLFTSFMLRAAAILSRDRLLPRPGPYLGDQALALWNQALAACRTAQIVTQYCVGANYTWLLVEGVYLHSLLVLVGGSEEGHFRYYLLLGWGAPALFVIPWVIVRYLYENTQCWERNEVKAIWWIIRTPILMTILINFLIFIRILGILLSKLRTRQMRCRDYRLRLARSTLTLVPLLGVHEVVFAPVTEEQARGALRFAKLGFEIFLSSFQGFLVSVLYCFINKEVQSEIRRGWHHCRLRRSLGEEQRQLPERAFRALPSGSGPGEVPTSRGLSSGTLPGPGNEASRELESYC

[3] = biological target: T2, GIP receptor; test: PathHunter β-arrestin assay, GIP receptor; design: host or cells: PathHunter CHO-K1 GIPR β-Arrestin Cell Line; settings: β-arrestin-2 recruitment, PathHunter CHO-K1 GIPR β-Arrestin Cell Line, 90 min at 37° C.; normalized to GIP; read-out: GIPR β Arrestin EC50
[4] = biological target: T1, GLP-1 receptor; test: PathHunter β-arrestin assay, GLP-1 receptor; design: host or cells: PathHunter CHO-K1 GLP1R β-Arrestin Cell Line; settings: β-arrestin-2 recruitment, PathHunter CHO-K1 GLP1R β-Arrestin Cell Line, 90 min at 37° C.; normalized to GLP-1; read-out: GLP-1R β Arrestin EC50
Description: β-arrestin-2 recruitment for GLP-1 receptor or GIP receptor was measured using the DiscoverX PathHunter Detection Kit and PathHunter® CHO-K1 GLPIR β-Arrestin Cell Line or PathHunter® CHO-K1 GIPR β-Arrestin Cell Line, respectively). Briefly, cells were grown in Ham's F12 Nutrient Mix with 10% FBS and lifted with Cell dissociation buffer, Enzyme free, PBS based (ThermoFisher). Harvested cells were pelleted and resuspended in Assay Complete Cell Plating Reagent 2 and 5000 cells per well were plated in tissue culture treated 384-well small volume white assay plates. Plates were then incubated at 37° C. and 5% CO2 overnight. The media was then replaced with fresh Assay Complete Cell Plating Reagent 2. Cells were then treated with 10 nl compound in DMSO using an ECHO 550 acoustic dispenser (Labcyte) in a 20-point dose response format in duplicate for 90 min at 37° C. The assay was then completed according to the manufacturer's instructions. Luminescence was measured using a Perkin Elmer Envision plate reader. Raw data was normalized to the maximum signal from GLP-1 or GIP (high) and DMSO (low). Dose response curves were analyzed using GraphPad Prism 9.0.

T1 sequence (P43220 24-463): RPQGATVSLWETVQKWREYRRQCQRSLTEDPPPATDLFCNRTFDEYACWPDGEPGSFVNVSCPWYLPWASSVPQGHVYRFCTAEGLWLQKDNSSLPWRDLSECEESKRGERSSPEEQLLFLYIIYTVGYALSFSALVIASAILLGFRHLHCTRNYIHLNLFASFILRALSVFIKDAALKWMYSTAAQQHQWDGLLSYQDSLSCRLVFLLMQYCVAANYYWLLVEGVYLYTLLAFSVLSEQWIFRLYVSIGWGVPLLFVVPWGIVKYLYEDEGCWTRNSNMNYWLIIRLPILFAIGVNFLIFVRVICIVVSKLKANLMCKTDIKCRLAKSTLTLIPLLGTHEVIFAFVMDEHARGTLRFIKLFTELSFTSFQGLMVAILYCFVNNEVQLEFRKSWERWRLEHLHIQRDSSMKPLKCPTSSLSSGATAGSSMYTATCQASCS

| Compound | EC50 [1] | Emax [1] | EC50 [2] | Emax [2] | EC50 [3] | EC50 [4] |
| --- | --- | --- | --- | --- | --- | --- |
| CC[C@H](C)[C@H](NC(=O)[C@H](CC(C)C)NC(=O)[C@H](Cc1c[nH]c2ccccc12)NC(=O)[C@H](CCC(N)=O)NC(=O)[C@@H](NC(=O)[C@H](Cc1ccccc1)NC(=O)[C@H](C)NC(=O)[C@H](CCCCNC(=O)COCCOCCNC(=O)COCCOCCNC(=O)CC[C@H](NC(=O)CCCCCCCCCCCCCCCCC(=O)O)C(=O)O)NC(=O)[C@H](CCC(N)=O)NC(=O)[C@H](C)NC(=O)[C@@H](NC(=O)[C@H](CCCCN)NC(=O)[C@H](CC(=O)O)NC(=O)[C@H](CC(C)C)NC(=O)C(C)(C)NC(=O)[C@@H](NC(=O)[C@H](CO)NC(=O)[C@H](Cc1ccc(O)cc1)NC(=O)[C@H](CC(=O)O)NC(=O)[C@H](CO)NC(=O)[C@@H](NC(=O)[C@H](Cc1ccccc1)NC(=O)[C@@H](NC(=O)CNC(=O)[C@H](CCC(=O)O)NC(=O)CCNC(=O)C(C)(C)c1cc(F)cc(C#N)c1)[C@@H](C)O)[C@@H](C)O)[C@@H](C)CC)[C@@H](C)CC)C(C)C)C(=O)N[C@@H](C)C(=O)NCC(=O)NCC(=O)N1CCC[C@H]1C(=O)N[C@@H](CO)C(=O)N[C@@H](CO)C(=O)NCC(=O)N[C@@H](C)C(=O)N1CCC[C@H]1C(=O)N1CCC[C@H]1C(=O)N1CCC[C@H]1C(=O)N[C@@H](CO)C(N)=O [Compound 106] ({Isobutyryl(2-(3-CN-5-F-Ph))-βAla}-EGTFTSDYSI[Aib]LDKIAQK([AEEA-AEEA-γGlu-C18 diacid])AFVQWLIAGGPSSGAPPPS-NH2) | 0.1 to 1 nM | 97% | 10 to 100 nM | 98% | > 1000 nM | > 1000 nM |
| CC[C@H](C)[C@H](NC(=O)[C@H](CC(C)C)NC(=O)[C@H](Cc1c[nH]c2ccccc12)NC(=O)[C@H](CCC(N)=O)NC(=O)[C@@H](NC(=O)[C@H](Cc1ccccc1)NC(=O)[C@H](C)NC(=O)[C@H](CCCCNC(=O)CC[C@H](NC(=O)CC[C@H](NC(=O)CC[C@H](NC(=O)[C@H]1CC[C@H](CNC(=O)CCCCCCCCCCCCCCCCCCC(=O)O)CC1)C(=O)O)C(=O)O)C(=O)O)NC(=O)[C@H](CCC(N)=O)NC(=O)[C@H](C)NC(=O)[C@@H](NC(=O)[C@H](CCCCN)NC(=O)[C@H](CC(=O)O)NC(=O)[C@H](CC(C)C)NC(=O)C(C)(C)NC(=O)[C@@H](NC(=O)[C@H](CO)NC(=O)[C@H](Cc1ccc(O)cc1)NC(=O)[C@H](CC(=O)O)NC(=O)[C@H](CO)NC(=O)[C@@H](NC(=O)[C@H](Cc1ccccc1)NC(=O)[C@@H](NC(=O)CNC(=O)[C@H](CCC(=O)O)NC(=O)CCNC(=O)C(C)(C)c1cc(F)cc(C#N)c1)[C@@H](C)O)[C@@H](C)O)[C@@H](C)CC)[C@@H](C)CC)C(C)C)C(=O)N[C@@H](C)C(=O)NCC(=O)NCC(=O)N1CCC[C@H]1C(=O)N[C@@H](CO)C(=O)N[C@@H](CO)C(=O)NCC(=O)N[C@@H](C)C(=O)N1CCC[C@H]1C(=O)N1CCC[C@H]1C(=O)N1CCC[C@H]1C(=O)N[C@@H](CO)C(N)=O [Compound 107] ({Isobutyryl(2-(3-CN-5-F-Ph))-βAla}-EGTFTSDYSI[Aib]LDKIAQK([γGlu-γGlu-γGlu-Trx-C20 diacid])AFVQWLIAGGPSSGAPPPS-NH2) | 0.1 to 1 nM | 95% | 1 to 10 nM | 106% | < 1000 nM | > 1000 nM |
| CC[C@H](C)[C@H](NC(=O)[C@H](CC(C)C)NC(=O)[C@H](Cc1c[nH]c2ccccc12)NC(=O)[C@H](CCC(N)=O)NC(=O)[C@@H](NC(=O)[C@H](Cc1ccccc1)NC(=O)[C@H](C)NC(=O)[C@H](CCCCNC(=O)COCCOCCNC(=O)COCCOCCNC(=O)CC[C@H](NC(=O)CCCCCCCCCCCCCCCCCCC(=O)O)C(=O)O)NC(=O)[C@H](CCC(N)=O)NC(=O)[C@H](C)NC(=O)[C@@H](NC(=O)[C@H](CCCCN)NC(=O)[C@H](CC(=O)O)NC(=O)[C@H](CC(C)C)NC(=O)C(C)(C)NC(=O)[C@@H](NC(=O)[C@H](CO)NC(=O)[C@H](Cc1ccc(O)cc1)NC(=O)[C@H](CC(=O)O)NC(=O)[C@H](CO)NC(=O)[C@@H](NC(=O)[C@H](Cc1ccccc1)NC(=O)[C@@H](NC(=O)CNC(=O)[C@H](CC(=O)O)NC(=O)CCNC(=O)C(C)(C)c1cc(F)cc(C#N)c1)[C@@H](C)O)[C@@H](C)O)[C@@H](C)CC)[C@@H](C)CC)C(C)C)C(=O)N[C@@H](C)C(=O)NCC(=O)NCC(=O)N1CCC[C@H]1C(=O)N[C@@H](CO)C(=O)N[C@@H](CO)C(=O)NCC(=O)N[C@@H](C)C(=O)N1CCC[C@H]1C(=O)N1CCC[C@H]1C(=O)N1CCC[C@H]1C(=O)N[C@@H](CO)C(N)=O [Compound 108] ({Isobutyryl(2-(3-CN-5-F-Ph))-βAla}-DGTFTSDYSI[Aib]LDKIAQK([AEEA-AEEA-γGlu-C20 diacid])AFVQWLIAGGPSSGAPPPS-NH2) | < 0.1 nM | 93% | 1 to 10 nM | 95% | < 1000 nM | > 1000 nM |
| CC[C@H](C)[C@H](NC(=O)[C@H](CC(C)C)NC(=O)[C@H](Cc1c[nH]c2ccccc12)NC(=O)[C@H](CCC(N)=O)NC(=O)[C@@H](NC(=O)[C@H](Cc1ccccc1)NC(=O)[C@H](C)NC(=O)[C@H](CCCCNC(=O)COCCOCCNC(=O)COCCOCCNC(=O)CC[C@H](NC(=O)CCCCCCCCCCCCCCCCCCC(=O)O)C(=O)O)NC(=O)[C@H](CCC(N)=O)NC(=O)[C@H](C)NC(=O)[C@@H](NC(=O)[C@H](CCCCN)NC(=O)[C@H](CC(=O)O)NC(=O)[C@H](CC(C)C)NC(=O)C(C)(C)NC(=O)[C@@H](NC(=O)[C@H](CO)NC(=O)[C@H](Cc1ccc(O)cc1)NC(=O)[C@H](CC(=O)O)NC(=O)[C@H](CO)NC(=O)[C@@H](NC(=O)[C@H](Cc1ccccc1)NC(=O)[C@@H](NC(=O)CNC(=O)[C@@H](CCC(=O)O)NC(=O)CCNC(=O)C(C)(C)c1cc(F)cc(C#N)c1)[C@@H](C)O)[C@@H](C)O)[C@@H](C)CC)[C@@H](C)CC)C(C)C)C(=O)N[C@@H](C)C(=O)NCC(=O)NCC(=O)N1CCC[C@H]1C(=O)N[C@@H](CO)C(=O)N[C@@H](CO)C(=O)NCC(=O)N[C@@H](C)C(=O)N1CCC[C@H]1C(=O)N1CCC[C@H]1C(=O)N1CCC[C@H]1C(=O)N[C@@H](CO)C(N)=O [Compound 109] ({Isobutyryl(2-(3-CN-5-F-Ph))-βAla}-[dE]GTFTSDYSI[Aib]LDKIAQK([AEEA-AEEA-γGlu-C20 diacid])AFVQWLIAGGPSSGAPPPS-NH2) | 10 to 100 nM | 82% | 10 to 100 nM | 96% | > 1000 nM | > 1000 nM |
| CC[C@H](C)[C@H](NC(=O)[C@H](CC(C)C)NC(=O)[C@H](Cc1c[nH]c2ccccc12)NC(=O)[C@H](CCC(N)=O)NC(=O)[C@@H](NC(=O)[C@H](Cc1ccccc1)NC(=O)[C@H](C)NC(=O)[C@H](CCCCNC(=O)COCCOCCNC(=O)COCCOCCNC(=O)CC[C@H](NC(=O)CCCCCCCCCCCCCCCCCCC(=O)O)C(=O)O)NC(=O)[C@H](CCC(N)=O)NC(=O)[C@H](C)NC(=O)[C@@H](NC(=O)[C@H](CCCCN)NC(=O)[C@H](CC(=O)O)NC(=O)[C@H](CC(C)C)NC(=O)C(C)(C)NC(=O)[C@@H](NC(=O)[C@H](CO)NC(=O)[C@H](Cc1ccc(O)cc1)NC(=O)[C@H](CC(=O)O)NC(=O)[C@H](CO)NC(=O)[C@@H](NC(=O)[C@H](Cc1ccccc1)NC(=O)[C@@H](NC(=O)CNC(=O)CC[C@H](NC(=O)CCNC(=O)C(C)(C)c1cc(F)cc(C#N)c1)C(=O)O)[C@@H](C)O)[C@@H](C)O)[C@@H](C)CC)[C@@H](C)CC)C(C)C)C(=O)N[C@@H](C)C(=O)NCC(=O)NCC(=O)N1CCC[C@H]1C(=O)N[C@@H](CO)C(=O)N[C@@H](CO)C(=O)NCC(=O)N[C@@H](C)C(=O)N1CCC[C@H]1C(=O)N1CCC[C@H]1C(=O)N1CCC[C@H]1C(=O)N[C@@H](CO)C(N)=O [Compound 110] ({Isobutyryl(2-(3-CN-5-F-Ph))-βAla-γGlu}-GTFTSDYSI[Aib]LDKIAQK([AEEA-AEEA-γGlu-C20 diacid])AFVQWLIAGGPSSGAPPPS-NH2) | 100 to 1000 nM | 31% | 100 to 1000 nM | 32% | > 1000 nM | > 1000 nM |
